Usually IC50 stands for the point on the concentration scale where inhibition reaches its midpoint.

Where two headings read alike, the source gives them in different places.

This is an account of results in patent US20050026987A1, “CBI analogues of the duocarmycins and CC-1065” (The Scripps Research Institute, priority 2003, published 2005).

Data set [1] relates to L1210. The following applies: cited from earlier work.
Data set [2] concerns L1210. The data set is described as follows: L1210 cytotoxic potency. The following applies: Mus musculus, L1210, read-out: IC50 (cytotoxic potency).

As to `NC(=O)N1CCc2c1ccc1[nH]c(C(=O)N3C[C@H]4C[C@@]45C3=CC(=O)c3ccccc35)cc21` [(+)-CBI-CDPI1], in the data set with L1210 [1] (disclosed in prior studies (J. Org. Chem. 1996, 61, 4894), read-out: IC50 (cytotoxic potency), prior studies), the IC50 is 5 pM. `COC(=O)c1cc2c([nH]1)C(=O)C=C1N(C(=O)c3cc4cc(OC)c(OC)c(OC)c4[nH]3)CC3CC123` (stereo not drawn) [duocarmycin SA, reference compound]: in the data set with L1210 [2], the IC50 is 6 to 10 pM. For the same compound, the “effect of 5,6,7-trimethoxy substitution / removal of TMI methoxy substituents on cytotoxic potency” value with L1210 [1] (literature comparison series) is 6.5-10 fold.
